The subject of data set [1] is gemcitabine-resistant pancreatic cancer. The conditions noted are these: second-line, small studies; cited from earlier work.
Data set [2] relates to locally advanced pancreatic cancer. As to conditions: 126 patients with locally advanced pancreatic cancer; cited from earlier work.
The next data set has as its system pancreatic cancer. The conditions noted are these: in vivo; cited from earlier work.
A short description of data set [3]: Phase I study of Nab-paclitaxel with vandetanib: MTD, DLT, adverse events. The format is in vivo, human. The text has this:
Patients were randomized to one of two cohorts. […] A 3+3 design was used.

The values below come from US9399072B2, “Methods of treatment of pancreatic cancer” (Abraxis BioScience, LLC, priority 2010, dated 2016).

For the molecule `CC(=O)O[C@H]1C(=O)[C@@]2(C)[C@H]([C@H](OC(=O)c3ccccc3)[C@]3(O)C[C@H](OC(=O)[C@H](O)[C@@H](NC(=O)c4ccccc4)c4ccccc4)C(C)=C1C3(C)C)[C@]1(OC(C)=O)CO[C@@H]1C[C@@H]2O` [paclitaxel], in data set [1], the median overall survival is 17.5 weeks and the response rate is listed as 6%.
As for `Nc1ccn([C@@H]2O[C@H](CO)[C@@H](O)C2(F)F)c(=O)n1` [gemcitabine], in data set [2], the median overall survival is reported as 5.7 months and the “median time to disease progression” value is 2.1 months. Moreover, in the data set on pancreatic cancer, the median overall survival was 6.0 months and the “median progression free survival” value is reported as 3.5 months.
As for `O=c1[nH]cc(F)c(=O)[nH]1` [5-FU, 5-fluororuracil], in data set [2], the median overall survival is recorded as 4.2 months and the “median time to disease progression” value is on record as 0.9 months.
For `COc1cc2c(Nc3ccc(Br)cc3F)ncnc2cc1OCC1CCN(C)CC1` [vandetanib], the MTD was found to be 300 mg in data set [3] (cohort A: daily, combined with 100 mg/m^2 Nab-paclitaxel weekly for three out of four weeks) and 300 mg in data set [3] (cohort B: daily, in combination with 260 mg/m^2 Nab-paclitaxel every three weeks).
